Assay [1] relates to RPE1-hTERT Cas9 TP53−/− parental (WT) and CCNE1-overexpressing clones. Kind of assay: Dose-response proliferation assay (IncuCyte confluency), RPE1-hTERT parental vs CCNE1-overexpressing clones. Type of assay: cell-based. The following applies: dose titration, FIG. 3C.
Description: For dose-response proliferation assays using RPE1-hTERT and FT282-hTERT cell lines, cells were seeded in 96-well plates and dosed with serially diluted Myt1 inhibitor. Cells were imaged once per day using the IncuCyte S3 microscope and percent well confluency was calculated over time. Once cells reached four population doublings the experiment was ended and IC50 curves were plotted for the final time point. Percentage confluency was calculated relative to the cell confluency in the untreated wells.
In assay [2] the target is T1, recombinant human Myt1 (full length PKMYT1) (Homo sapiens, UniProt Q99640).
T1 sequence (Q99640 1-499): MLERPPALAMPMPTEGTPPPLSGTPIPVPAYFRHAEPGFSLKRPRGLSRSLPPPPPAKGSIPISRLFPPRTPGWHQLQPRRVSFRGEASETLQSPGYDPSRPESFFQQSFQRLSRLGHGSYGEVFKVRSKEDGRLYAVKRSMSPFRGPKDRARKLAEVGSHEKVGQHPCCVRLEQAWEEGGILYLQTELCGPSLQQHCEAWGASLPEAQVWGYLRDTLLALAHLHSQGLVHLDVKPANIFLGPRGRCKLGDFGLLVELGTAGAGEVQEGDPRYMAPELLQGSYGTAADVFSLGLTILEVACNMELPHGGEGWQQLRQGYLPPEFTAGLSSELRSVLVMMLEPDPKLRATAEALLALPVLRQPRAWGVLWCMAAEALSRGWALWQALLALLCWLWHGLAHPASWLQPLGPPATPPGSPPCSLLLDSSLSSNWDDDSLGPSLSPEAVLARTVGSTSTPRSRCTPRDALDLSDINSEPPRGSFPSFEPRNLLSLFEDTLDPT
Description: Myt1 enzymatic assay (ADP-Glo kinase assay, ATP hydrolysis). On the technique in general: ADP-Glo first removes unused ATP, then detects ADP through luciferase.
Description: Detection of Myt1 kinase activity utilized a recombinant human Myt1 kinase assay measuring the hydrolysis of ATP using a commercially available ADP-Glo Assay (ADP-Glo™ Kinase Assay from Promega, 10 000 assays, #V9102). […] After this, 5 μL of compounds (diluted in reaction buffer to 0.5% DMSO) was added to the microplate and the plate was spun briefly and incubated at 22° C. for 15 minutes. […] Luminescence was read using the Envision (250 ms integration). The IC50 and the % max inhibition were calculated for each inhibitor compound tested.

For the molecule `Cc1ccc(O)c(C)c1-n1c(N)c(C(N)=O)c2cc(Cl)cnc21` (single isomer, unassigned) [Compound 133, S-2-amino-5-chloro-1-(3-hydroxy-2,6-dimethyl-phenyl)pyrrolo[2,3-b]pyridine-3-carboxamide], the “sensitivity (cell viability) of CCNE1-overexpressing cells compared with corresponding WT cells” value in assay [1] is given as “more sensitive”. A word on the IC50: it is the concentration at which inhibition is half-maximal. `Cc1ccc(O)cc1-n1c(N)c(C(N)=O)c2nc(Cl)ccc21` [Compound 4]: the IC50 in assay [2] was 922 nM.

These data come from US20230158022A1, “METHODS OF USING MYT1 INHIBITORS” (Repare Therapeutics Inc., priority 2020, published 2023).
